# From patent US20260207450A1, “ANTI-DANDRUFF COMPOSITIONS” (Firmenich SA, priority 2022, published 2026)
# Legend:
# [1] = tested on: M. globosa ATCC MYA-4612; test: Disc-diffusion assay, perfumery materials in Shampoo Base B, M. globosa; format: cell-based, Malassezia globosa; details: 0.25% perfumery material in 25% Shampoo Base B solution, 6 mm disc, 6 days
# Source text: (§1) The present inventors sought to investigate how whether the anti-dandruff effect of compounds and compositions could be used in shampoo formulations. For this reason, they prepared two shampoo bases. Shampoo Base A is a composition with Sodium Laureth Sulfate and cocamidopropyl betaine as the primary ingredients, while Shampoo Base B is a composition with Ammonium Lauryl Sulfate and Ammonium Laureth Sulfate as primary ingredients. Anti-Malassezia effect of perfumery materials in shampoo was determined using disc-diffusion assay, based on the method of J Mycol Infect 2018; 23: 91-98. […] Aliquots (20 μL) of each sample solution was added to each disc. Agar plates were incubated at 30° C. for 6 days. After incubation, diameters of the clear inhibition zones around the discs were measured.
# [2] = tested on: M. restricta ATCC MYA-4611; test: Disc-diffusion assay, perfumery materials in Shampoo Base B, M. restricta; format: cell-based, Malassezia restricta; details: 0.25% perfumery material in 25% Shampoo Base B solution, 6 mm disc, 6 days
# Source text: as §1
# [3] = tested on: M. globosa ATCC MYA-4612; test: Disc-diffusion assay, perfumery materials in DMSO, M. globosa; format: cell-based, Malassezia globosa; details: Malassezia globosa, 144 h
# Procedure: (§2) Anti-Malassezia effect of perfumery materials in solvent in DMSO was determined using disc-diffusion assay, based on the method of J Mycol Infect 2018: 23: 91-98. In brief, working cultures of Malassezia strains were prepared from −80 C stock culture on mDixon agar plate (for M. furfur DSM 6170) or mLN agar plate (for M. restricta ATCC MYA-4611 and M. globosa ATCC MYA-4612), and cells were suspended in 0.9% saline, and spread onto mDixon or mLN agar surface to prepare lawn plate. Test samples solutions are prepared in DMSO to final concentrations of 0.2%, 1% or 2%. Discs (Whatman, 6 mm in diameter) were placed on inoculated agar plates with each Malassezia strains respectively, including M. furfur DSM 6170, M. restricta ATCC MYA-4611, and M. globosa ATCC MYA-4612. Aliquots (20 μL) of each sample solution was added to each disc. Agar plates were incubated at 30° C. for 3 days for M. furfur DSM 6170, and 6 days for M. restricta ATCC MYA-4611, and M. globosa ATCC MYA-4612. After incubation, diameters of the clear inhibition zones around the discs were measured. Inhibition zone greater than 6 mm are regarded as having anti-Malassezia effect.
# [4] = tested on: Malassezia furfur DSM 6170; test: MIC assay on Malassezia furfur DSM 6170 (resazurin); format: cell-based; details: Malassezia furfur, DSM6170; 30° C., 48 h aerobically; dilutions 29 to 10000 ppm
# Procedure: The MIC assay for Malassezia furfur DSM 6170 was modified based on the method in Journal of Clinical Microbiology 2017, Vol 55: 1883-1893. In brief, working culture was prepared from stock cultures stored at −80° C. to obtain a cell suspension as the inoculum. Serial dilutions of samples, 29 to 10000 ppm, were tested to determine the MIC values for growth of Malassezia furfur DSM 6170 after at 30° C. for 48 h aerobically. Resazurin was used as growth indicator.
# (§3) A total of 26 perfumery materials were examined for an inhibition effect on Malassezia furfur and Staphylococcus aureus.
# [5] = tested on: M. furfur DSM 6170; test: Disc-diffusion assay, perfumery materials in DMSO, M. furfur; format: cell-based, Malassezia furfur; details: Malassezia furfur, DSM6170, 72 h
# Procedure: as §2
# [6] = tested on: Staphylococcus aureus ATCC 6538; test: MIC assay on Staphylococcus aureus ATCC 6538; format: cell-based; details: Staphylococcus aureus, ATCC6538; TSB, 37° C., 24 h aerobically; dilutions 29 to 10000 ppm; read-out: MIC (ppm) S. aureus
# Procedure: MIC assay for Staphylococcus aureus ATCC 6538 is based on Clinical Laboratory Standard Institute: CLSI/NCCLS M07-A8. Cell suspension of working cultures of S. aureus was prepared following the instructions of culture provider ATCC, USA.
# as §3
# [7] = tested on: M. furfur DSM 6170; test: Disc-diffusion assay, (2E,6Z)-2,6-nonadienal with anti-dandruff actives in DMSO, M. furfur; format: cell-based, Malassezia furfur; details: 3 days
# Procedure: The anti-Malassezia effect of perfumery materials in combination of anti-dandruff actives using the disk-diffusion assay, modified based on the method of J Mycol Infect 2018; 23: 91-98. working culture of M. furfur DSM 6170 was prepared from −80 C stock culture on mDixon agar plate, and cells were suspended in 0.9% saline, and spread onto mDixon agar surface to prepare lawn plates. Discs (Whatman, 6 mm in diameter) were placed on inoculated mDixon agar plates. Test sample solutions are prepared in DMSO. Aliquots (20 μL) of each sample solution was added to each disc. Agar plates were incubated at 30° C. for 3 days. After incubation, diameters of the clear inhibition zones around the discs were measured.
# [8] = tested on: M. restricta; test: Disc-diffusion assay, combinations with piroctone olamine (PO) in DMSO, M. restricta; format: cell-based, Malassezia restricta; details: 4 days, ratio greater than 1.0 = boosting effect
# Procedure: Anti-Malassezia effect of combinations of PO and perfumery materials in solvent DMSO against M. restricta was determined using disc-diffusion assay as described above. Aliquots (20 μL) of each sample solution was added to each disc. Agar plates were incubated at 30° C. for 4 days. After incubation, diameters of the clear inhibition zones around the discs were measured. Ratio of inhibition zone diameter of each combination to that of PO only were calculated. […] Anti-Malassezia effect of combinations of PO and perfumery raw materials mixtures in solvent DMSO was determined using disc-diffusion assay, as described above. Aliquots (20 μL) of each sample solution was added to each disc. Agar plates were incubated at 30° C. for 4 days. After incubation, diameters of the clear inhibition zones around the discs were measured. Ratio of inhibition zone diameter of each combination to that of PO only were calculated.
# [9] = tested on: M. restricta ATCC MYA-4611; test: Disc-diffusion assay, perfumery materials in DMSO, M. restricta; format: cell-based, Malassezia restricta; details: Malassezia restricta, 144 h
# Procedure: as §2
# [10] = tested on: M. restricta ATCC MYA-4611; test: Cylinder diffusion assay, hair conditioner base with 0.35% PO and mixtures, M. restricta; format: cell-based, Malassezia restricta; details: conditioner containing 0.35% PO without mixture; 25% conditioner solution, 80 μL cylinder, 4 days
# Procedure: A hair conditioner base was prepared. The main components included water, cetyl alcohol, MIRASIL® ADME-NP (water (and) amodimethicone (and) trideceth-6), stearyl alcohol, behentrimonium methosulfate (and) Isopropanol.
# Anti-Malassezia effect of hair conditioners was determined using cylinder diffusion assay that was used for testing shampoos, as described above. In brief, working cultures of M. restricta ATCC MYA-4611 and inoculated as described in disc diffusion assay. Cylinders were placed on inoculated agar plates. Aliquots (80 μL) of each sample (25% conditioner solution) were added to each cylinder. Agar plates were incubated at 30° C. for 4 days. After incubation, diameters of the clear inhibition zones around the discs were measured.
MIC [4] [µg/mL],MIC [6] [µg/mL],Compound,Inhibition zone (mm) M. globosa [1] [mm],Inhibition zone (mm) M. restricta [2] [mm],zone of inhibition at 1 % [3] [mm],zone of inhibition at 2 % [5] [mm],Ratio of inhibition zone diameter (0.5% PRM + 0.1% PO) to 0.1% PO [8],zone of inhibition at 0.2 % [9] [mm],zone of inhibition at 1 % [9] [mm],zone of inhibition at 2 % [9] [mm],zone of inhibition at 2 % [3] [mm],also measured
–,–,C=CCc1ccc(O)c(OC)c1 [2-methoxy-4-(2-propen-1-yl)phenol],8.2,7.3,–,–,–,–,–,–,–,–
–,–,CCCc1cccc(O)c1 [3-propylphenol],10.2,7.7,–,–,–,–,–,–,–,–
44,233,"CC/C=C\CC/C=C/C=O [(2E,6Z)-2,6-nonadienal]",12.8,11.1,> 40,13.5,3.4,7.7,> 40,> 40,–,"zone of inhibition at 0.2 % [3]: 12.4 mm; Inhibition zone (mm) on M. furfur ([7]; Table 5, 0.75% in DMSO, 6 mm disc): 7.6 mm; Inhibition zone (mm) on M. furfur ([7]; Table 6, 1% in DMSO): 11.4 mm; Inhibition zone (mm) on M. furfur ([7]; Table 7, 1% in DMSO): 14.1 mm; Ratio of inhibition zone diameter (0.2% PRM + 0.1% PO) to 0.1% PO [8]: 1.2"
333,75,C/C(=C\c1ccc(C)cc1)CCC=O [(4E)-4-methyl-5-(4-methylphenyl)-4-pentenal],–,–,9,7.5,1.2,6.8,11.6,12,10.5,–
–,–,"Cc1cc(CC(C)CC(C)(C)C)n(O)c(=O)c1.NCCO (stereo not drawn) [Piroctone Olamine (PO), Piroctone Olamine]",–,–,–,–,–,–,–,–,–,"Inhibition zone diameter (mm) against M. restricta [10]: No inhibition zone; Inhibition zone (mm) on M. furfur ([7]; Table 5, 0.19% in DMSO, 6 mm disc): 11.8 mm"
222,450,"CC(C)=CCC/C(C)=C/C=O [citral, (Z)-3,7-dimethyl-2,6-octadienal+(E)-3,7-dimethyl-2,6-octadienal]",–,–,–,8.6,–,6.2,7.1,> 40,8.7,zone of inhibition at 0.2 % [3]: 6.2 mm; Ratio of inhibition zone diameter (1% PRM + 0.35% PO) to 0.35% PO [8]: 1.1
–,–,CC(=O)N1CCN(c2ccc(OCC3COC(Cn4ccnc4)(c4ccc(Cl)cc4Cl)O3)cc2)CC1 (stereo not drawn) [ketoconazole],–,–,–,–,–,–,–,–,–,"Inhibition zone (mm) on M. furfur ([7]; Table 7, 0.1% in DMSO): 22.3 mm; Inhibition zone (mm) on M. furfur ([7]; Table 7, 0.2% in DMSO): 24.6 mm; Inhibition zone (mm) on M. furfur ([7]; Table 7, 0.3% in DMSO): 24.5 mm; Inhibition zone (mm) on M. furfur ([7]; Table 7, 0.4% in DMSO): 24.9 mm"

Compound,MIC [4] [µg/mL],MIC [6] [µg/mL],Inhibition zone (mm) M. globosa [1] [mm],Inhibition zone (mm) M. restricta [2] [mm],zone of inhibition at 1 % [3] [mm],zone of inhibition at 2 % [5] [mm],Ratio of inhibition zone diameter (0.5% PRM + 0.1% PO) to 0.1% PO [8],zone of inhibition at 0.2 % [9] [mm],zone of inhibition at 1 % [9] [mm],zone of inhibition at 2 % [9] [mm],zone of inhibition at 2 % [3] [mm],also measured
"O=C/C=C/c1ccccc1 [cinnamaldehyde, (E)-3-phenyl-2-propenal]",99,293,–,–,17.6,16.5,3.4,8.4,34.5,33.3,27.4,Ratio of inhibition zone diameter (0.2% PRM + 0.1% PO) to 0.1% PO [8]: 1.4; Ratio of inhibition zone diameter (0.2% PRM + 0.35% PO) to 0.35% PO [8]: 1.3
